pKi: −log10 of the molar value.
Target: purified LasB protein from P. aeruginosa (Pseudomonas aeruginosa (strain ATCC 15692 / DSM 22644 / CIP 104116 / JCM 14847 / LMG 12228 / 1C / PRS 101 / PAO1), UniProt P14756)
Test: Fluorometric assay to determine Ki (Abz-Ala-Gly-Leu-Ala-p-Nitro-Benzyl-Amide substrate)
Assay type: biochemical
Conditions: 250 μM substrate, Ki calculated from IC50
Method: Experiments were therefore conducted (1) to measure the potency of inhibition of compounds of the invention against purified Pseudomonas aeruginosa LasB enzyme and also experiments were conducted (2) to measure the ability of compounds of the invention to inhibit LasB-catalysed elastin degradation. The first assay uses a commercial fluorescent synthetic peptide and purified LasB enzyme. The LasB hydrolysis kinetics are measured allowing the determination of the IC50 and Ki of the inhibitors; the second is a more physiological assay using dialysed Pseudomonas aeruginosa supernatant as source of enzyme, plus its natural substrate Elastin. It is an “end point assay” that determines the percentage of LasB inhibition by each compound for one particular time point and inhibitor concentration. Technical details are described below:
Fluorometric Assay to Determine Ki
This assay uses commercially available substrate (Abz-Ala-Gly-Leu-Ala-p-Nitro-Benzyl-Amide (Ex: 340 nm, Em: 415 nm) from Peptide International) and purified LasB protein from P. aeruginosa (provided by Merck or Charles River Laboratories). It is performed to determine LasB elastase activity and assess compound inhibition in 96-well plate format. All compounds of Formula (I) were assessed using the method described below.
Method: 10 to 140 ng/ml purified LasB is incubated with 250 μM Abz-Ala-Gly-Leu-Ala-p-Nitro-Benzyl-Amide in 50 mM Tris-HCl pH 7.4, 2.5 mM CaCl2), 0.01% of Triton X100 at 37° C. LasB activity (corresponding to fluorescence emission induced by substrate hydrolysis) is measured over 30 min at 37° C. with a fluorescence plate reader such as the Perkin Elmer Envision or similar. Different range of inhibitor concentrations are routinely assessed depending of inhibitor potency from 0.0016 to 200 μM (2-fold dilutions series) in order to determine IC50.
The equation used to calculate the Ki from IC50 is: Ki=IC50/(1+([S]/Km)) where [S]=250 μM and Km=214 μM.

Chain of purified LasB protein from P. aeruginosa (P14756 198-498): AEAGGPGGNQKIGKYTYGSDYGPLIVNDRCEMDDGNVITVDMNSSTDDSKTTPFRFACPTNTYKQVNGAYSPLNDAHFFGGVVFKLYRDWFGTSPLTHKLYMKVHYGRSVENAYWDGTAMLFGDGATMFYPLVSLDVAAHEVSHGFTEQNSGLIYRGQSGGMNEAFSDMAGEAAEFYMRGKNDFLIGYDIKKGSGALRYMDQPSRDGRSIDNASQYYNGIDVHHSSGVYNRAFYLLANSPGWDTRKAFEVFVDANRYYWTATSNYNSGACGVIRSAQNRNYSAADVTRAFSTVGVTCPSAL

Q: With `COc1cc2sc(CNC(=O)C3(CC(=O)O)Cc4ccccc4C3)nc2cc1OCCN1CCOCC1` [Example 9, 2-[2-[[6-methoxy-5-(2-morpholinoethoxy)-1,3-benzothiazol-2-yl]methylcarbamoyl]indan-2-yl]acetic Acid] as the molecule, how does the pKi read?
A: Its pKi is greater than 7.30.

Q: `COc1cc2sc(CNC(=O)C3(CC(=O)O)Cc4cc(F)c(F)cc4C3)nc2cc1OCCN1CCOCC1` [Example 10, 2-[5,6-difluoro-2-[[6-methoxy-5-(2-morpholinoethoxy)-1,3-benzothiazol-2-yl]methylcarbamoyl]indan-2-yl]acetic Acid] was tested. Which pKi did it give?
A: Its pKi is greater than 7.30.

Q: How did the pKi turn out when `COc1cc2sc(CNC(=O)C3(CC(=O)O)Cc4cc(F)c(F)cc4C3)nc2cc1OCC1CCN(C)CC1` [Example 11, 2-[5,6-difluoro-2-[[6-methoxy-5-[(1-methyl-4-piperidyl)methoxy]-1,3-benzothiazol-2-yl]methylcarbamoyl]indan-2-yl]acetic Acid] was run?
A: Its pKi is greater than 7.30.

Q: How did the pKi turn out when `COc1cc2sc(CNC(=O)C3(CC(=O)[O-])Cc4ccccc4C3)nc2cc1OCCC[N+]1(C)CCOCC1` [Example 16, 2-[2-[[6-methoxy-5-[3-(4-methylmorpholin-4-ium-4-yl)propoxy]-1,3-benzothiazol-2-yl]methylcarbamoyl]indan-2-yl]acetate] was run?
A: Its pKi is greater than 7.30.

Q: How did the pKi turn out when `CC[N+](C)(CC)CCCOc1cc2nc(CNC(=O)C3(CC(=O)[O-])Cc4ccccc4C3)sc2cc1OC` [Example 18, 2-[2-[[5-[3-[diethyl(methyl)ammonio]propoxy]-6-methoxy-1,3-benzothiazol-2-yl]methylcarbamoyl]indan-2-yl]acetate] was run?
A: Its pKi is greater than 7.30.

Q: With `COc1cc2sc(CNC(=O)C3(CC(=O)[O-])Cc4cc(F)c(F)cc4C3)nc2cc1OCCC[N+]1(C)CCCC1` [Example 19, 2-[5,6-difluoro-2-[[6-methoxy-5-[3-(1-methylpyrrolidin-1-ium-1-yl)propoxy]-1,3-benzothiazol-2-yl]methylcarbamoyl]indan-2-yl]acetate] as the molecule, how does the pKi read?
A: The pKi was greater than 7.30.

Q: How did the pKi turn out when `COc1cc2sc(CNC(=O)C3(CC(=O)[O-])Cc4ccccc4C3)nc2cc1OCCC[N+](C)(C)CCO` [Example 20, 2-[2-[[5-[3-[2-hydroxyethyl(dimethyl)ammonio]propoxy]-6-methoxy-1,3-benzothiazol-2-yl]methylcarbamoyl]indan-2-yl]acetate] was run?
A: Its pKi is greater than 7.30.

Q: How did the pKi turn out when `COc1cc2sc(CNC(=O)C3(CC(=O)[O-])Cc4cc(F)c(F)cc4C3)nc2cc1OCCC[N+](C)(C)CCO` [Example 21, 2-[5,6-difluoro-2-[[5-[3-[2-hydroxyethyl(dimethyl)ammonio]propoxy]-6-methoxy-1,3-benzothiazol-2-yl]methylcarbamoyl]indan-2-yl]acetate] was run?
A: Its pKi is greater than 7.30.

Q: With `COc1cc2sc(CNC(=O)C3(CC(=O)[O-])Cc4ccccc4C3)nc2cc1OCCC[N+](C)(CCO)CCO` [Example 22, 2-[2-[[5-[3-[bis(2-hydroxyethyl)-methyl-ammonio]propoxy]-6-methoxy-1,3-benzothiazol-2-yl]methylcarbamoyl]indan-2-yl]acetate] as the molecule, how does the pKi read?
A: The pKi was greater than 7.30.

Q: With `COc1cc2sc(CNC(=O)C3(CC(=O)[O-])Cc4cc(F)c(F)cc4C3)nc2cc1OCCC[N+](C)(CCO)CCO` [Example 23, 2-[2-[[5-[3-[bis(2-hydroxyethyl)-methyl-ammonio]propoxy]-6-methoxy-1,3-benzothiazol-2-yl]methylcarbamoyl]-5,6-difluoro-indan-2-yl]acetate] as the molecule, how does the pKi read?
A: The pKi was greater than 7.30.

Q: With `COc1cc2sc(CNC(=O)C3(CC(=O)O)Cc4ccccc4C3)nc2cc1C(=O)N1CCN(C)CC1` [Example 33, 2-[2-[[6-methoxy-5-(4-methylpiperazine-1-carbonyl)-1,3-benzothiazol-2-yl]methylcarbamoyl]indan-2-yl]acetic Acid] as the molecule, how does the pKi read?
A: The pKi was greater than 7.30.

Q: With `COc1cc2sc(CNC(=O)C3(CC(=O)O)Cc4ccccc4C3)nc2cc1C(=O)N1CC(N(C)C)C1` [Example 36, 2-[2-[[5-[3-(dimethylamino)azetidine-1-carbonyl]-6-methoxy-1,3-benzothiazol-2-yl]methylcarbamoyl]indan-2-yl]acetic Acid] as the molecule, how does the pKi read?
A: Its pKi is greater than 7.30.

Q: `COc1cc2sc(CNC(=O)C3(CC(=O)O)Cc4cc(F)c(F)cc4C3)nc2cc1C(=O)N1CC(N(C)C)C1` [Example 37, 2-[2-[[5-[3-(dimethylamino)azetidine-1-carbonyl]-6-methoxy-1,3-benzothiazol-2-yl]methylcarbamoyl]-5,6-difluoro-indan-2-yl]acetic Acid] was tested. Which pKi did it give?
A: Its pKi is greater than 7.30.

Q: `COc1cc2sc(CNC(=O)C3(CC(=O)[O-])Cc4cc(F)c(F)cc4C3)nc2cc1OCC1CC[N+](C)(C)CC1` [Example 44, 2-[2-[[5-[(1,1-dimethylpiperidin-1-ium-4-yl)methoxy]-6-methoxy-1,3-benzothiazol-2-yl]methylcarbamoyl]-5,6-difluoro-indan-2-yl]acetate] was tested. Which pKi did it give?
A: The pKi was greater than 7.30.

System: Pseudomonas aeruginosa (PAO1)
Test: Mouse model of Pseudomonas aeruginosa lung infection
Assay type: in vivo
Conditions: mice infected with wild-type PAO1, intravenous 10 and 30 mg/kg at 1 h and 2 h post infection, 24 hours post infection (FIG. 2)
Method: Mice were dosed by intranasal inoculation of PA (PAO1), then sacrified after 24 hours. The extent of infection in the lung was quantified by bacterial load (CFU determination, colony forming units) and the levels of proinflammatory IL-1β. Statistical analysis on both readouts were performed by ANOVA with a Dunnett post-test.
Compounds were administered intravenously in a two-dose regimen (1 hour and 2 hours post infection) at two different doses (10 and 30 mg/kg).

Q: With `COc1cc2sc(CNC(=O)C3(CC(=O)[O-])Cc4cc(F)c(F)cc4C3)nc2cc1OCCC[N+](C)(CCO)CCO` [Example 23, 2-[2-[[5-[3-[bis(2-hydroxyethyl)-methyl-ammonio]propoxy]-6-methoxy-1,3-benzothiazol-2-yl]methylcarbamoyl]-5,6-difluoro-indan-2-yl]acetate] as the molecule, how does the “production and activation of IL-1β in the lung” value read?
A: Its value is “inhibited the production and activation of IL-1β in mice infected by wild-type PA (PA01) at a similar level than the lasB deleted mutant”.

Same assay, conditions: mice infected with wild-type PAO1, intravenous 10 and 30 mg/kg at 1 h and 2 h post infection, 24 hours post infection (FIG. 3)

Q: `COc1cc2sc(CNC(=O)C3(CC(=O)[O-])Cc4cc(F)c(F)cc4C3)nc2cc1OCCC[N+](C)(CCO)CCO` [Example 23, 2-[2-[[5-[3-[bis(2-hydroxyethyl)-methyl-ammonio]propoxy]-6-methoxy-1,3-benzothiazol-2-yl]methylcarbamoyl]-5,6-difluoro-indan-2-yl]acetate] was tested. Which “extent of infection in the lung (CFU levels)” value did it give?
A: The value was “reduced the extent of infection in the lung to the level of the LasB deleted mutant”.
